pIC50, pKd: −log10 of the molar value.
Experiments:
mTORC1 signaling = experiment: MEF TSC1−/− cell-based assay for rapalog potency (pS6); set-up: species or system Mouse; details: MEF TSC1−/− cells, average from multiple assays
Experimental: Cell-based assay for rapalog potency determination. Rapalog potency was determined using MEF TSC1−/− cell based assay. MEF TSC1−/− cells are Mouse Embryonic Fibroblasts deficient in Tuberous sclerosis protein—TSC1, which negatively regulates mTORC1 signaling and thus display constitutive mTORC1 activation, resulting in phosphorylation (activation) of downstream molecules. This cell-based assay is used to measure inhibition (de-phosphorylation) of S6 and 4EBP1 by rapalogs or other mTOR inhibitors.
MEF TSC1−/− cells were plated on Poly-D-lysine coated 384 well Griener clear bottom plates and incubated overnight at 37° C., 5% CO2. […] Nuclei were visualized with Hoechst (ThermoFisher Scientific #H3570) staining. Cells were imaged (InCell 600) using respective fluorescence channels and the potency of mTOR inhibitors was defined by pS6 IC50 (nM).
In vitro potency of mTOR inhibitors was defined by pS6 IC50 (nM) in MEF TSC1−/− cells.

FKBP51 = FKBP51 (Homo sapiens (Human), UniProt Q13451); experiment: SPR assay, binding affinity to FKBP51; details: single-cycle kinetics
FKBP51, sequence (Q13451 whole entry, the tested form may be a part): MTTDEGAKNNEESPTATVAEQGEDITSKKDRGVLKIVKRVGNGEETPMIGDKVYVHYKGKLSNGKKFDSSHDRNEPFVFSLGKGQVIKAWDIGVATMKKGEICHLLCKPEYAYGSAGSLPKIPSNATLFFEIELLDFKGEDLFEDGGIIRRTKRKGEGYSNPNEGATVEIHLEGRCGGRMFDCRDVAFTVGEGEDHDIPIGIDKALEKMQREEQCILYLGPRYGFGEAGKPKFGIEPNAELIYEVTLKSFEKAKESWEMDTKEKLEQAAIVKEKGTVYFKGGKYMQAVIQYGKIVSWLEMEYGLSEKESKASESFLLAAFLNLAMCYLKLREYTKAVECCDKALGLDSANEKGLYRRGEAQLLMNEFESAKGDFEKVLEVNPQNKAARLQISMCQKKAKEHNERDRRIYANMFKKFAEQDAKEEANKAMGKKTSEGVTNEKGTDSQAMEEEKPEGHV
Experimental: (§1) SPR Assay to Determine Binding Affinity to FK506-Binding Proteins (FKBP). N-terminal avi-his6 tagged FKBP fusions to FKBP12, FKBP51 and FKBP52 were expressed in E. coli and purified using standard chromatography. Each protein was subsequently immobilized on a streptavidin chip in a Biacore 8K SPR instrument (GE Healthcare). Using single-cycle kinetics, compound titrations were flowed at 45 uL/min over each surface using 2-minute association and 30-minute dissociation phases in a buffer containing 50 mM Tris pH 7.5/150 mM NaCl/0.01% Tween 20/1 mM DTT/2% DMSO. The data was fit using low molecular weight (LMW) single-cycle kinetics. The equilibrium dissociation constants (KD) are reported.

FKBP12 = FKBP12 (Homo sapiens (Human), UniProt P62942); experiment: SPR assay, binding affinity to FKBP12; details: single-cycle kinetics
FKBP12, sequence (P62942 whole entry): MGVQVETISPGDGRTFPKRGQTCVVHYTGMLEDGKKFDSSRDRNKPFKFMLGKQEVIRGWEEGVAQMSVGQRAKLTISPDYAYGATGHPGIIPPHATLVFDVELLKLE
Experimental: as §1

FKBP52 = FKBP52 (Homo sapiens (Human), UniProt Q02790); experiment: SPR assay, binding affinity to FKBP52; details: single-cycle kinetics
FKBP52, sequence (Q02790 whole entry): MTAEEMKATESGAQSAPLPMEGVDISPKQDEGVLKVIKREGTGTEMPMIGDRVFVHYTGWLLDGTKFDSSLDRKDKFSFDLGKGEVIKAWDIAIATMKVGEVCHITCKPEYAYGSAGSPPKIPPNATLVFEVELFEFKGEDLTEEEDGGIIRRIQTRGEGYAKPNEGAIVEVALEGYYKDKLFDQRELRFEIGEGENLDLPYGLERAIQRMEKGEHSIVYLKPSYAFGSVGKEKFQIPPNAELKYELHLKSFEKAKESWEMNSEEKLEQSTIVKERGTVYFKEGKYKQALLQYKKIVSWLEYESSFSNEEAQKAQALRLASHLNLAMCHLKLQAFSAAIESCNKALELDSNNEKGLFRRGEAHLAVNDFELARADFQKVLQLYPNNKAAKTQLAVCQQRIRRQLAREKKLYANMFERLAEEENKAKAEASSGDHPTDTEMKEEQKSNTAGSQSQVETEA
Experimental: as §1

in vivo = details: male, Sprague Dawley, rat, whole blood
[1] = test system: S6K1 (Thr389) in FKBP12 knock-down 293T cells; experiment: S6K1 (Thr389) phosphorylation ELISA in FKBP12 knock-down 293T cells; type: cell-based; details: 2 hours treatment

pIC50 (mTORC1 signaling; Mus musculus)	Compound	pKd (FKBP51)	other results
8.84	CO[C@@H]1C[C@H](C[C@@H](C)[C@@H]2CC[C@H](C)/C=C(\C)[C@@H](O)[C@@H](OC)C(=O)[C@H](C)C[C@H](C)/C=C/C=C/C=C(\C)C(N3CCC3=O)C[C@@H]3CC[C@@H](C)[C@@](O)(O3)C(=O)C(=O)N3CCCC[C@H]3C(=O)O2)CC[C@H]1O (single isomer, unassigned) [Example 3]	–	–
< 6.30	CO[C@@H]1C[C@H](C[C@@H](C)[C@@H]2CC[C@H](C)/C=C(\C)[C@@H](O)[C@@H](OC)C(=O)[C@H](C)C[C@H](C)/C=C/C=C/C=C(\C)C(N3CCN(C)C3=O)C[C@@H]3CC[C@@H](C)[C@@](O)(O3)C(=O)C(=O)N3CCCC[C@H]3C(=O)O2)CC[C@H]1O (single isomer, unassigned) [Example 4, C16-(3-methylimidazolidin-2-one-1-yl)-C32-deoxo-rapamycin]	–	–
6.82	CO[C@@H]1C[C@H](C[C@@H](C)[C@@H]2CC[C@H](C)/C=C(\C)[C@@H](O)[C@@H](OC)C(=O)[C@H](C)C[C@H](C)/C=C/C=C/C=C(\C)C(N3CCN(CCO)C3=O)C[C@@H]3CC[C@@H](C)[C@@](O)(O3)C(=O)C(=O)N3CCCC[C@H]3C(=O)O2)CC[C@H]1O (single isomer, unassigned) [Example 5]	–	–
–	CO[C@@H]1C[C@H](C[C@@H](C)[C@@H]2CC[C@H](C)/C=C(\C)[C@@H](O)[C@@H](OC)C(=O)[C@H](C)C[C@H](C)/C=C/C=C/C=C(\C)C(N3CCS3(=O)=O)C[C@@H]3CC[C@@H](C)[C@@](O)(O3)C(=O)C(=O)N3CCCC[C@H]3C(=O)O2)CC[C@H]1O (single isomer, unassigned) [Example 7, C16-(1,1-dioxido-1,2-thiazetidin-2-yl)-C32-deoxo-rapamycin]	6.54	pKd (FKBP12): 8.92; pKd (FKBP52): 6.63
9.25	CO[C@@H]1C[C@H](C[C@@H](C)[C@@H]2CC[C@H](C)/C=C(\C)[C@@H](O)[C@@H](OC)C(=O)[C@H](C)C[C@H](C)/C=C/C=C/C=C(\C)C(N3CCS3(=O)=O)C[C@@H]3CC[C@@H](C)[C@@](O)(O3)C(=O)C(=O)N3CCCC[C@H]3C(=O)O2)CC[C@H]1OP(C)(C)=O (single isomer, unassigned) [Example 10, C16-(1,1-dioxido-1,2-thiazetidin-2-yl)-C32-deoxo-C40-dimethylphosphinyl-rapamycin]	7.02	–
8.48	CO[C@@H]1C[C@H](C[C@@H](C)[C@@H]2CC[C@H](C)/C=C(\C)[C@@H](O)[C@@H](OC)C(=O)[C@H](C)C[C@H](C)/C=C/C=C/C=C(\C)C(N3CCS3(=O)=O)C[C@@H]3CC[C@@H](C)[C@@](O)(O3)C(=O)C(=O)N3CCCC[C@H]3C(=O)O2)CC[C@H]1OP(C)(C)=O (single isomer, unassigned) [Example 11, C16-(1,1-dioxido-1,2-thiazetidin-2-yl)-C32-deoxo-C40-dimethylphosphinyl-rapamycin]	–	–
9.43	CO[C@@H]1C[C@H](C[C@@H](C)[C@@H]2CC[C@H](C)/C=C(\C)[C@@H](O)[C@@H](OC)C(=O)[C@H](C)C[C@H](C)/C=C/C=C/C=C(\C)C(N3CCS3(=O)=O)C[C@@H]3CC[C@@H](C)[C@@](O)(O3)C(=O)C(=O)N3CCCC[C@H]3C(=O)O2)CC[C@@H]1n1cnnn1 (single isomer, unassigned) [Example 12]	–	–
–	CO[C@@H]1C[C@H](C[C@@H](C)[C@@H]2CC[C@H](C)/C=C(\C)[C@@H](O)[C@@H](OC)C(=O)[C@H](C)C[C@H](C)/C=C/C=C/C=C(\C)C(N3CCCS3(=O)=O)C[C@@H]3CC[C@@H](C)[C@@](O)(O3)C(=O)C(=O)N3CCCC[C@H]3C(=O)O2)CC[C@H]1OP(C)(C)=O (single isomer, unassigned) [Example 15, C16-(1,1-dioxidoisothiazolidin-2-yl)-C32-deoxo-C40-dimethylphosphinyl-rapamycin]	–	pIC50 (mTORC1 signaling): 8.49
8.96	CO[C@@H]1C[C@H](C[C@@H](C)[C@@H]2CC[C@H](C)/C=C(\C)[C@@H](O)[C@@H](OC)C(=O)[C@H](C)C[C@H](C)/C=C/C=C/C=C(\C)C(N3CCCS3(=O)=O)C[C@@H]3CC[C@@H](C)[C@@](O)(O3)C(=O)C(=O)N3CCCC[C@H]3C(=O)O2)CC[C@@H]1n1cnnn1 (single isomer, unassigned) [Example 17]	–	–
8.81	CCOCCO[C@@H]1CC[C@@H](C[C@@H](C)[C@@H]2CC[C@H](C)/C=C(\C)[C@@H](O)[C@@H](OC)C(=O)[C@H](C)C[C@H](C)/C=C/C=C/C=C(\C)C(N3CCCS3(=O)=O)C[C@@H]3CC[C@@H](C)[C@@](O)(O3)C(=O)C(=O)N3CCCC[C@H]3C(=O)O2)C[C@H]1OC (single isomer, unassigned) [Example 18, C16-(1,1-dioxidoisothiazolidin-2-yl)-C32-deoxo-C40-(2-ethoxyethoxy)-rapamycin]	–	–
10.04	CO[C@H]1C[C@@H]2CC[C@@H](C)[C@@](O)(O2)C(=O)C(=O)N2CCCC[C@H]2C(=O)O[C@H]([C@H](C)C[C@@H]2CC[C@@H](O)[C@H](OC)C2)CC[C@H](C)/C=C(\C)[C@@H](O)[C@@H](OC)C(=O)[C@H](C)C[C@H](C)/C=C/C=C/C=C/1C [Intermediate 1, C32-deoxo-rapamycin, reference compound]	–	–
10.23	CO[C@H]1C[C@@H]2CC[C@@H](C)[C@@](O)(O2)C(=O)C(=O)N2CCCC[C@H]2C(=O)O[C@H]([C@H](C)C[C@@H]2CC[C@@H](OCCO)[C@H](OC)C2)CC[C@H](C)/C=C(\C)[C@@H](O)[C@@H](OC)C(=O)[C@H](C)C[C@H](C)/C=C/C=C/C=C/1C [Intermediate 3]	–	–
10.18	CO[C@H]1C[C@@H]2CC[C@@H](C)[C@@](O)(O2)C(=O)C(=O)N2CCCC[C@H]2C(=O)O[C@H]([C@H](C)C[C@@H]2CC[C@@H](OP(C)(C)=O)[C@H](OC)C2)CC[C@H](C)/C=C(\C)[C@@H](O)[C@@H](OC)C(=O)[C@H](C)C[C@H](C)/C=C/C=C/C=C/1C [Intermediate 4]	–	–
9.97	CO[C@H]1C[C@@H]2CC[C@@H](C)[C@@](O)(O2)C(=O)C(=O)N2CCCC[C@H]2C(=O)O[C@H]([C@H](C)C[C@@H]2CC[C@H](n3cnnn3)[C@H](OC)C2)CC[C@H](C)/C=C(\C)[C@@H](O)[C@@H](OC)C(=O)[C@H](C)C[C@H](C)/C=C/C=C/C=C/1C [Intermediate 5]	–	–
10.30	CO[C@H]1C[C@@H]2CC[C@@H](C)[C@@](O)(O2)C(=O)C(=O)N2CCCC[C@H]2C(=O)O[C@H]([C@H](C)C[C@@H]2CC[C@@H](OCCO)[C@H](OC)C2)CC(=O)[C@H](C)/C=C(\C)[C@@H](O)[C@@H](OC)C(=O)[C@H](C)C[C@H](C)/C=C/C=C/C=C/1C [RAD001, everolimus, reference compound]	6.09	clearance (in vivo; iv, 1 mg/kg): 32 mL/min/kg; bioavailability (in vivo; oral, 3 mg/kg): 19%; maximum inhibition of S6K1(Thr389) [1]: 70%

Compound	pIC50 (mTORC1 signaling; Mus musculus)	pKd (FKBP51)	other results
CO[C@@H]1C[C@H](C[C@@H](C)[C@@H]2CC[C@H](C)/C=C(\C)[C@@H](O)[C@@H](OC)C(=O)[C@H](C)C[C@H](C)/C=C/C=C/C=C(\C)C(N3CCS3(=O)=O)C[C@@H]3CC[C@@H](C)[C@@](O)(O3)C(=O)C(=O)N3CCCC[C@H]3C(=O)O2)CC[C@H]1O (single isomer, unassigned) [Example 6, C16-(1,1-dioxido-1,2-thiazetidin-2-yl)-C32-deoxo-rapamycin]	9.77	7.41	pKd (FKBP12): 9.49; pKd (FKBP52): 7.28
CO[C@@H]1C[C@H](C[C@@H](C)[C@@H]2CC[C@H](C)/C=C(\C)[C@@H](O)[C@@H](OC)C(=O)[C@H](C)C[C@H](C)/C=C/C=C/C=C(\C)[C@@H](N3CCCS3(=O)=O)C[C@@H]3CC[C@@H](C)[C@@](O)(O3)C(=O)C(=O)N3CCCC[C@H]3C(=O)O2)CC[C@H]1O [Example 1, (S)—C16-(1,1-dioxidoisothiazolidin-2-yl)-C32-deoxo-rapamycin]	8.62	6.82	pKd (FKBP12): 9.46; pKd (FKBP52): 6.76
CO[C@@H]1C[C@H](C[C@@H](C)[C@@H]2CC[C@H](C)/C=C(\C)[C@@H](O)[C@@H](OC)C(=O)[C@H](C)C[C@H](C)/C=C/C=C/C=C(\C)[C@H](N3CCCS3(=O)=O)C[C@@H]3CC[C@@H](C)[C@@](O)(O3)C(=O)C(=O)N3CCCC[C@H]3C(=O)O2)CC[C@H]1OCCO [Example 16, (R)—C16-(1,1-dioxidoisothiazolidin-2-yl)-C32-deoxo-C40-(2-hydroxyethoxy)-rapamycin]	9.19	5.39	–

— patent US12091424B2, “Rapamycin derivatives” (NOVARTIS AG, priority 2017, dated 2024)
